Source: patent US20250290117A1, “MOLECULAR PHENOTYPIC ANTIMICROBIAL SUSCEPTIBILITY TESTING” (priority 2024, published 2025)

Experiments:
[1] = system: E. coli; experiment: Molecular phenotypic antimicrobial susceptibility test, specimen with two detected pathogens incubated together without isolation; type: cell-based, Escherichia coli; conditions: E. coli in specimen with two detected pathogens (E. coli and M. morganii) incubated together; for Ct of Sensitive Breakpoint: Ct of controls (average) 15.93; for Molecular Antimicrobial Susceptibility Result: at sensitive breakpoint
Method: Detection of Molecular Phenotypic Antimicrobial Susceptibility. Disclosed herein are the methods for the detection of phenotypic antimicrobial susceptibility via molecular methods. The present invention describes how a specimen 100 with a known microbial load is incubated and then exposed to a panel of antimicrobial agents to determine sensitivity (prevention of growth) or resistance (allowance of growth) to the specific antimicrobial agents tested utilizing molecular methods.
Sample Collection. Specimens 100 are collected from patients using sterile collection processes that are employed in routine clinical care. Specimens are transported to the testing facility in boric acid preservative. Specimens 100 are subsequently divided into a first sample 104 and a second sample 108.
Preparation of the Specimens for Testing. The specimens 100 are put through a pathogen identification process using PCR technology (e.g., using the first sample 104). The process for pathogen isolation includes steps of harvesting the pathogen (e.g., via centrifugation), isolating pathogen DNA via a DNA isolation and/or purification kit, and performing PCR on the pathogen DNA via PCR components (e.g., primers, enzymes, buffers) as would be known to the skilled artisan. Simultaneously, an additional aliquot of the same specimen (e.g., the second sample 108) is placed with liquid culture media and incubated for 4-6 hours. This aliquot is used for antimicrobial susceptibility testing if indicated based on the pathogen detection results. After pathogen identification is completed and if more than 10,000 cells/mL of bacteria (e.g., eligible bacteria) are detected in the source specimen, the second sample 108 then enters the antimicrobial susceptibility phase of testing. Specimens 100 with lower pathogen loads could also be utilized in the antibiotic susceptibility phase of testing with or without a longer incubation period.
Preparation of Antimicrobial Susceptibility Testing Plates. Antimicrobial solutions are prepared at known concentrations. The specific antimicrobials and their concentrations are selected based on the pathogen of interest and the described antimicrobial resistance breakpoints for that specimen pathogen and antimicrobial combination. These antimicrobials have been selected based on those commonly utilized by healthcare providers in routine clinical care for the specific type of suspected infection. The number and types of antimicrobials utilized can be customized based on the infection source, pathogen detected, patient-specific factors such as allergies or other health conditions (e.g., chronic kidney disease or concurrent medication use), or healthcare provider preferences such as antimicrobial availability or cost.
The antimicrobial solutions are prepared in liquid culture media (such as Muller Hinton Broth) to achieve the desired antimicrobial concentration and are then stored at −80° C. until use. For a given specimen, each antimicrobial is tested at a single or multiple antimicrobial concentration(s) which is its established breakpoints for sensitivity. The antimicrobial solutions are prepared and plated out for each specific pathogen. This allows ease of use on the day of testing after defrosting the plate 112. Table 1, which illustrates the results of molecular phenotypic antimicrobial susceptibility testing when more than one organism is present in the source specimen, provides an example of an antimicrobial plate 112 prepared for this purpose. Of note, control wells containing only culture media are present on all plates 112. This allows for evaluation of pathogen load when no antimicrobial is present.
Specimen Exposure to Antimicrobial Agents. The 1 mL aliquot of the specimen 100 previously mixed with culture media and incubated is obtained. Using optical density measurements as a guide, the specimen 100 is diluted to 0.5 McFarland. […]

[2] = system: pathogen of the specimen; experiment: Molecular phenotypic antimicrobial susceptibility test with direct PCR at various incubation timepoints (Table 7); type: cell-based
Method: Detection of Molecular Phenotypic Antimicrobial Susceptibility. Disclosed herein are the methods for the detection of phenotypic antimicrobial susceptibility via molecular methods. The present invention describes how a specimen 100 with a known microbial load is incubated and then exposed to a panel of antimicrobial agents to determine sensitivity (prevention of growth) or resistance (allowance of growth) to the specific antimicrobial agents tested utilizing molecular methods. Sample Collection. Specimens 100 are collected from patients using sterile collection processes that are employed in routine clinical care. Specimens are transported to the testing facility in boric acid preservative. […] The process for pathogen isolation includes steps of harvesting the pathogen (e.g., via centrifugation), isolating pathogen DNA via a DNA isolation and/or purification kit, and performing PCR on the pathogen DNA via PCR components (e.g., primers, enzymes, buffers) as would be known to the skilled artisan. […] This aliquot is used for antimicrobial susceptibility testing if indicated based on the pathogen detection results. […] Specimens 100 with lower pathogen loads could also be utilized in the antibiotic susceptibility phase of testing with or without a longer incubation period. […] Antimicrobial solutions are prepared at known concentrations. The specific antimicrobials and their concentrations are selected based on the pathogen of interest and the described antimicrobial resistance breakpoints for that specimen pathogen and antimicrobial combination. These antimicrobials have been selected based on those commonly utilized by healthcare providers in routine clinical care for the specific type of suspected infection. The number and types of antimicrobials utilized can be customized based on the infection source, pathogen detected, patient-specific factors such as allergies or other health conditions (e.g., chronic kidney disease or concurrent medication use), or healthcare provider preferences such as antimicrobial availability or cost. The antimicrobial solutions are prepared in liquid culture media (such as Muller Hinton Broth) to achieve the desired antimicrobial concentration and are then stored at −80° C. until use. For a given specimen, each antimicrobial is tested at a single or multiple antimicrobial concentration(s) which is its established breakpoints for sensitivity. The antimicrobial solutions are prepared and plated out for each specific pathogen. […] This allows for evaluation of pathogen load when no antimicrobial is present. Specimen Exposure to Antimicrobial Agents. The 1 mL aliquot of the specimen 100 previously mixed with culture media and incubated is obtained. Using optical density measurements as a guide, the specimen 100 is diluted to 0.5 McFarland. […] Antimicrobial exposure plates are typically placed into an incubator for 12-16 hours. […] Nucleic Acid Amplification of Antimicrobial Agent Exposed Pathogens. The antimicrobial exposure plate is removed after the period of incubation. The specimen then undergoes a purification or lysis step. For example, the specimen may undergo a purification step (e.g., magnetic bead-based or other separation protocol to isolate genetic material). In another example, the specimen may undergo a cell lysis step. For example, buffer (e.g., lysis buffer) may be added and incubated in the thermal cycler for preparation for direct PCR. Next, the specimen may undergo a polymerase chain reaction (PCR) testing protocol, whereby a semi-quantitative PCR method is utilized. This may be completed either with or without a specific extraction protocol step. The pathogens can be individually targeted and detected, or a universal genetic sequence can be utilized to detect the antimicrobial susceptibility of the specimen as a whole. The control wells are utilized as a threshold for determining antimicrobial sensitivity or resistance. […] Antimicrobial Susceptibility Result Interpretation.

[3] = E. coli isolate 1189, antibiotic incubation time 4 hours
[4] = E. coli isolate 1189, antibiotic incubation time 4 hours, control average Ct […]
[5] = E. coli isolate 1189, antibiotic incubation time 6 hours
[6] = E. coli isolate 1189, antibiotic incubation time 6 hours, control average Ct 16.992
[7] = E. coli isolate 1189, antibiotic incubation time 8 hours
[8] = E. coli isolate 1189, antibiotic incubation time 8 hours, control average Ct […]
[9] = E. coli isolate 1189, antibiotic incubation time 10 hours
[10] = E. coli isolate 1189, antibiotic incubation time 10 hours, control average Ct 15.995
[11] = E. coli isolate 1189, antibiotic incubation time 12 hours
[12] = E. coli isolate 1189, antibiotic incubation time 12 hours, control average Ct 15.495
[13] = E. coli isolate 1189, antibiotic incubation time 14 hours
[14] = E. coli isolate 1189, antibiotic incubation time 14 hours, control average Ct 15.826
[15] = E. coli isolate 1189, antibiotic incubation time 16 hours
[16] = E. coli isolate 1189, antibiotic incubation time 16 hours, control average Ct 14.880

CO/N=C(\C(=O)N[C@@H]1C(=O)N2C(C(=O)O)=C(CSc3nc(=O)c(=O)[nH]n3C)CS[C@H]12)c1csc(N)n1 [Ceftriaxone]
Ct of Sensitive Breakpoint [1]: 28.57
Molecular Antimicrobial Susceptibility Result [1]: Sensitive (Antimicrobial wells with pathogen load detected below the control wells (typically >2 cycle thresholds later) may be reported as Sensitive)
Molecular Antimicrobial Susceptibility Result [2, 3]: Resistant
Ct at Sensitive Breakpoint [2, 4]: 16.185
Molecular Antimicrobial Susceptibility Result [2, 5]: Resistant
Ct at Sensitive Breakpoint [2, 6]: 16.838
Molecular Antimicrobial Susceptibility Result [2, 7]: Resistant
Ct at Sensitive Breakpoint [2, 8]: 17.431
Molecular Antimicrobial Susceptibility Result [2, 9]: Resistant
Ct at Sensitive Breakpoint [2, 10]: 16.347
Molecular Antimicrobial Susceptibility Result [2, 11]: Resistant
Ct at Sensitive Breakpoint [2, 12]: 16.258
Molecular Antimicrobial Susceptibility Result [2, 13]: Resistant
Ct at Sensitive Breakpoint [2, 14]: 14.724
Molecular Antimicrobial Susceptibility Result [2, 15]: Resistant
Ct at Sensitive Breakpoint [2, 16]: 15.840

O=C(O)c1cn(C2CC2)c2cc(N3CCNCC3)c(F)cc2c1=O [Ciprofloxacin]
Ct of Sensitive Breakpoint [1]: 31.81
Molecular Antimicrobial Susceptibility Result [1]: Sensitive (Antimicrobial wells with pathogen load detected below the control wells (typically >2 cycle thresholds later) may be reported as Sensitive)
Molecular Antimicrobial Susceptibility Result [2, 3]: Sensitive (Antimicrobial wells with pathogen load detected below the control wells (typically >2 cycle thresholds later) may be reported as Sensitive)
Ct at Sensitive Breakpoint [2, 4]: 27.666
Molecular Antimicrobial Susceptibility Result [2, 5]: Sensitive (Antimicrobial wells with pathogen load detected below the control wells (typically >2 cycle thresholds later) may be reported as Sensitive)
Ct at Sensitive Breakpoint [2, 6]: 27.144
Molecular Antimicrobial Susceptibility Result [2, 7]: Sensitive (Antimicrobial wells with pathogen load detected below the control wells (typically >2 cycle thresholds later) may be reported as Sensitive)
Ct at Sensitive Breakpoint [2, 8]: 28.104
Molecular Antimicrobial Susceptibility Result [2, 9]: Sensitive (Antimicrobial wells with pathogen load detected below the control wells (typically >2 cycle thresholds later) may be reported as Sensitive)
Ct at Sensitive Breakpoint [2, 10]: 27.715
Molecular Antimicrobial Susceptibility Result [2, 11]: Sensitive (Antimicrobial wells with pathogen load detected below the control wells (typically >2 cycle thresholds later) may be reported as Sensitive)
Ct at Sensitive Breakpoint [2, 12]: 27.182
Molecular Antimicrobial Susceptibility Result [2, 13]: Sensitive (Antimicrobial wells with pathogen load detected below the control wells (typically >2 cycle thresholds later) may be reported as Sensitive)
Ct at Sensitive Breakpoint [2, 14]: 27.128
Molecular Antimicrobial Susceptibility Result [2, 15]: Sensitive (Antimicrobial wells with pathogen load detected below the control wells (typically >2 cycle thresholds later) may be reported as Sensitive)
Ct at Sensitive Breakpoint [2, 16]: 28.446

C[C@H]1COc2c(N3CCN(C)CC3)c(F)cc3c(=O)c(C(=O)O)cn1c23 [Levofloxacin]
Ct of Sensitive Breakpoint [1]: 32.72
Molecular Antimicrobial Susceptibility Result [1]: Sensitive (Antimicrobial wells with pathogen load detected below the control wells (typically >2 cycle thresholds later) may be reported as Sensitive)
Molecular Antimicrobial Susceptibility Result [2, 3]: Sensitive (Antimicrobial wells with pathogen load detected below the control wells (typically >2 cycle thresholds later) may be reported as Sensitive)
Ct at Sensitive Breakpoint [2, 4]: 27.130
Molecular Antimicrobial Susceptibility Result [2, 5]: Sensitive (Antimicrobial wells with pathogen load detected below the control wells (typically >2 cycle thresholds later) may be reported as Sensitive)
Ct at Sensitive Breakpoint [2, 6]: 26.759
Molecular Antimicrobial Susceptibility Result [2, 7]: Sensitive (Antimicrobial wells with pathogen load detected below the control wells (typically >2 cycle thresholds later) may be reported as Sensitive)
Ct at Sensitive Breakpoint [2, 8]: 27.068
Molecular Antimicrobial Susceptibility Result [2, 9]: Sensitive (Antimicrobial wells with pathogen load detected below the control wells (typically >2 cycle thresholds later) may be reported as Sensitive)
Ct at Sensitive Breakpoint [2, 10]: 27.170
Molecular Antimicrobial Susceptibility Result [2, 11]: Sensitive (Antimicrobial wells with pathogen load detected below the control wells (typically >2 cycle thresholds later) may be reported as Sensitive)
Ct at Sensitive Breakpoint [2, 12]: 26.835
Molecular Antimicrobial Susceptibility Result [2, 13]: Sensitive (Antimicrobial wells with pathogen load detected below the control wells (typically >2 cycle thresholds later) may be reported as Sensitive)
Ct at Sensitive Breakpoint [2, 14]: 27.545
Molecular Antimicrobial Susceptibility Result [2, 15]: Sensitive (Antimicrobial wells with pathogen load detected below the control wells (typically >2 cycle thresholds later) may be reported as Sensitive)
Ct at Sensitive Breakpoint [2, 16]: 27.791
